Here are results for seven compounds from US9302999B2, “Substituted triazoles as herbicides” (E. I. DU PONT DE NEMOURS AND COMPANY, priority 2012, dated 2016).

Experiment [1] concerns speedwell (bird's-eye speedwell, Veronica persica). Description: Test D pre-/postemergence: speedwell. The class given is in vivo. An outline of the steps: (§1)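 Visual control ratings (0–100) after 14–21 days, controlled environment. Preemergence on silt loam; postemergence on 2–18 cm plants.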
For experiment [2], the system named is field bindweed (Convolvulus arvensis). Put plainly: Test F pre-/postemergence: field bindweed. The format is in vivo. The gist of the method:
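Visual response scores, 0 meaning no effect and 100 complete control, were assigned against untreated controls 14 to 21 days after treatment. Test chemicals in a surfactant-containing non-phytotoxic solvent were applied preemergence to seeded silt loam soil or postemergence to 2–18 cm plants in peat-based medium.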

For experiment [3], the system named is chickweed (common chickweed, Stellaria media). Description: Test D pre-/postemergence: chickweed. The class given is in vivo. An outline of the steps: as §1
Experiment [4] deals with barnyardgrass (Echinochloa crus-galli). Description: Test C flooded paddy test: barnyardgrass. The class given is in vivo. As to conditions: scale 0 to 100 (0 no effect, 100 complete control). An outline of the steps:
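Plants at 2-leaf stage in pots flooded 3 cm above soil; compounds applied directly into the paddy water, depth maintained. Visual rating against controls after 13–15 days in greenhouse, scale 0 (no effect) to 100 (complete control).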

Experiment [5] deals with Waterhemp. Put plainly: Test C preemergence: waterhemp. The class given is in vivo, Amaranthus rudis. As to conditions: scale 0 to 100, 0 no effect, 100 complete control.
Experiment [6] deals with Waterhemp. Description: Test C preemergence: waterhemp. The format is in vivo. As to conditions: 62 g ai/ha, scale of 0 to 100, 0 is no effect, 100 is complete control. An excerpt:
Seeds of plant species selected from blackgrass (Alopecurus myosuroides), bromegrass, downy (downy bromegrass, Bromus tectorum), foxtail, green (green foxtail, Setaria viridis), ryegrass, Italian (Italian ryegrass, Lolium multiflorum), winter wheat (Triticum aestivum), wild oat (Avena fatua), galium (catchweed bedstraw, Galium aparine), bermudagrass (Cynodon dactylon), surinam grass (Brachiaria decumbens), cocklebur (common cocklebur, Xanthium strumarium), corn (Zea mays), large crabgrass (Digitaria sanguinalis), woolly cupgrass (Eriochloa villosa), foxtail, giant (giant foxtail, Setaria faberii), goosegrass (Eleusine indica), johnsongrass (Sorghum halepense), kochia (Kochia scoparia), lambsquarters (Chenopodium album), morningglory (Ipomoea coccinea), nightshade (eastern black nightshade, Solanum ptycanthum), nutsedge, yellow (yellow nutsedge, Cyperus esculentus), pigweed (Amaranthus retroflexus), ragweed (common ragweed, Ambrosia elation), soybean (Glycine max), common (oilseed) sunflower (Helianthus annuus), Russian thistle (Salsola kali) and velvetleaf (Abutilon theophrasti) were planted into a blend of loam soil and sand and treated preemergence with test chemicals formulated in a non-phytotoxic solvent mixture which included a surfactant.
Treated plants and controls were maintained in a greenhouse for 13 to 15 days, after which time all species were compared to controls and visually evaluated. Plant response ratings, summarized in Table C, are based on a scale of 0 to 100 where 0 is no effect and 100 is complete control. A dash (-) response means no test result.

The mark [7] stands for this setting: Preemergence, 16 g ai/ha, scale 0 to 100, 0 no effect, 100 complete control.
Where [8] appears, read: Preemergence, 31 g ai/ha, scale 0 to 100, 0 no effect, 100 complete control.
[9] abbreviates: Preemergence, 62 g ai/ha, scale 0 to 100.
Setting [10] is: Preemergence, 125 g ai/ha, scale 0 to 100.
Where [11] appears, read: Preemergence, 250 g ai/ha, scale 0 to 100.
Where [12] appears, read: Postemergence, 31 g ai/ha, scale 0 to 100 (0 no effect, 100 complete control).
The mark [13] stands for this setting: Postemergence, 62 g ai/ha, scale 0 to 100 (0 no effect, 100 complete control).
Setting [14] is: Postemergence, 125 g ai/ha, scale 0 to 100, 0 no effect, 100 complete control.
[15] abbreviates: Postemergence, 16 g ai/ha, scale 0 to 100.
Setting [16] is: Postemergence, 250 g ai/ha, scale 0 to 100 (0 no effect, 100 complete control).
The mark [17] stands for this setting: Flood (flooded paddy test), 125 g ai/ha, visual rating after 13 to 15 days.
Setting [18] is: Flood (flooded paddy test), 250 g ai/ha, visual rating after 13 to 15 days.

In the case of `Cc1nn(-c2ccc(C(F)(F)F)c(F)c2)nc1Oc1ccnc(C(F)(F)F)c1` [Compound 148], the “Plant response rating, Speedwell” value in experiment [1] (setting [7]) came to 5; in experiment [1] (setting [8]), 95; in experiment [1] (setting [9]), 50; in experiment [1] (setting [10]) it was 100. In addition, the “Plant response rating, Field Bindweed” value was determined as 0 in experiment [2] (setting [7]); 0 in experiment [2] (setting [8]); 0 in experiment [2] (setting [9]); 20 in experiment [2] (setting [10]); 50 in experiment [2] (setting [11]). Besides, the “Plant response rating: Chickweed” value in experiment [3] (setting [12]) stood at 70; in experiment [3] (setting [13]), 80; in experiment [3] (setting [14]), 90. In addition, the “Plant response rating, Chickweed” value in experiment [3] (setting [15]) is on record as 60; in experiment [3] (setting [7]) it was 25; in experiment [3] (setting [8]) it was 60; in experiment [3] (setting [9]), 70; in experiment [3] (setting [10]), 100.
On to `Cc1nn(-c2ccc(C(F)(F)F)cn2)nc1Cc1cccc(C(F)(F)F)c1` [Compound 106], for which the “Plant response rating: Speedwell” value in experiment [1] (setting [12]) turned out to be 0; in experiment [1] (setting [13]), 0; in experiment [1] (setting [14]), 90; in experiment [1] (setting [16]) it was 90. Further, the “Plant response rating, Speedwell” value in experiment [1] (setting [15]) was 0. Further, the “Plant response rating: Chickweed” value in experiment [3] (setting [12]), in experiment [3] (setting [13]), in experiment [3] (setting [14]) and in experiment [3] (setting [16]) was 90 in each case. Moreover, the “Plant response rating, Chickweed” value was determined as 20 in experiment [3] (setting [15]); 100 in experiment [3] (setting [8]); 100 in experiment [3] (setting [9]); 100 in experiment [3] (setting [10]); 100 in experiment [3] (setting [11]). Further, the “Plant response rating, Barnyardgrass” value in experiment [4] (setting [17]) amounted to 20; in experiment [4] (setting [18]), 40; in experiment [4] (Flood, 31 g ai/ha), 0; in experiment [4] (Flood, 62 g ai/ha), 0.
Take `FC(F)(F)COc1nn(-c2ccc(C(F)(F)F)cc2)nc1Cc1ccnc(C(F)(F)F)c1` [Compound 14, 4-[[5-(2,2,2-trifluoroethoxy)-2-[4-(trifluoromethyl)phenyl]-2H-1,2,3-triazol-4-yl]methyl]-2-(trifluoromethyl)pyridine]: the “Plant response rating: Speedwell” value in experiment [1] (setting [12]), in experiment [1] (setting [13]), in experiment [1] (setting [14]) and in experiment [1] (setting [16]) was 100 in each case. The “Plant response rating, Speedwell” value in experiment [1] (setting [8]), in experiment [1] (setting [9]), in experiment [1] (setting [10]) and in experiment [1] (setting [11]) was 100 each time. In addition, the “Plant response rating: Chickweed” value in experiment [3] (setting [12]) worked out at 50; in experiment [3] (setting [13]) it was 80; in experiment [3] (setting [14]) it was 90; in experiment [3] (setting [16]), 98. The “Plant response rating, Chickweed” value in experiment [3] (setting [8]) was determined as 75; in experiment [3] (setting [9]), 100; in experiment [3] (setting [10]), 100; in experiment [3] (setting [11]) it was 100. Moreover, in experiment [4] (Echinochloa crus-galli, Flood (flooded paddy test), 62 g ai/ha, visual rating after 13 to 15 days, read-out: Plant response rating, Barnyardgrass), the pest or weed control at 62 g/ha stood at 50%. For the same compound, in experiment [4] (Echinochloa crus-galli, Flood (flooded paddy test), 250 g ai/ha, visual rating after 13 to 15 days, read-out: Plant response rating, Barnyardgrass), the pest or weed control at 250 g/ha was 70%.
Take `Cc1nn(-c2ccc(C(F)(F)F)cc2)nc1Oc1ccnc(C(F)(F)F)c1` [Compound 120]: the “Plant response rating: Speedwell” value in experiment [1] (setting [12]), in experiment [1] (setting [13]), in experiment [1] (setting [14]) and in experiment [1] (setting [16]) was 100 each time. Moreover, the “Plant response rating, Speedwell” value in experiment [1] (setting [15]) came out at 60; in experiment [1] (setting [7]), 0. Also, the “Plant response rating: Chickweed” value in experiment [3] (setting [12]) is reported as 85; in experiment [3] (setting [13]) it was 98; in experiment [3] (setting [14]), 100; in experiment [3] (setting [16]), 100. The “Plant response rating, Chickweed” value turned out to be 75 in experiment [3] (setting [15]); 20 in experiment [3] (setting [7]); 90 in experiment [3] (setting [8]); 90 in experiment [3] (setting [9]); 100 in experiment [3] (setting [10]); 100 in experiment [3] (setting [11]). The “Plant response rating, Barnyardgrass” value was found to be 80 in experiment [4] (setting [17]); 80 in experiment [4] (setting [18]); 65 in experiment [4] (Flood, 62 g ai/ha).
`CCOc1nn(-c2ccc(Cl)cc2)nc1Cc1ccnc(C(F)(F)F)c1` [Compound 188]: the “Plant response rating, Waterhemp” value in experiment [5] (125 g ai/ha), in experiment [5] (250 g ai/ha) and in experiment [6] was 100 in each case.
Take `Cc1nn(-c2ccc(C(F)(F)F)cn2)nc1Oc1ccnc(C(F)(F)F)c1` [Compound 23]: the “Plant response rating: Speedwell” value is given as 10 in experiment [1] (setting [12]), 20 in experiment [1] (setting [13]), 50 in experiment [1] (setting [14]) and 60 in experiment [1] (setting [16]). The “Plant response rating, Speedwell” value in experiment [1] (setting [15]) was found to be 5. In addition, the “Plant response rating: Chickweed” value in experiment [3] (setting [12]) turned out to be 10; in experiment [3] (setting [13]), 15; in experiment [3] (setting [14]) it was 30; in experiment [3] (setting [16]) it was 90. Moreover, in experiment [3] (setting [15]), the “Plant response rating, Chickweed” value is given as 5. The “Plant response rating, Barnyardgrass” value was 0 in experiment [4] (Flood (flooded paddy test), 62 g ai/ha, visual rating after 13 to 15 days); 20 in experiment [4] (setting [17]); 25 in experiment [4] (setting [18]); 0 in experiment [4] (Flood, 31 g ai/ha).
Regarding `CCOc1nn(-c2ccc(F)cc2)nc1Cc1ccnc(C(F)(F)F)c1` [Compound 196, 4-[[5-ethoxy-2-(4-fluorophenyl)-2H-1,2,3-triazol-4-yl]methyl]-2-(trifluoromethyl)pyridine], the “Plant response rating, Speedwell” value in experiment [1] (setting [7]) was 5; in experiment [1] (setting [8]), 100; in experiment [1] (setting [9]), 100; in experiment [1] (setting [10]) it was 100. Also, the “Plant response rating, Field Bindweed” value in experiment [2] (Postemergence, 8 g ai/ha, scale 0 to 100) was 50; in experiment [2] (setting [15]) it was 60; in experiment [2] (Postemergence, 31 g ai/ha, scale 0 to 100), 70; in experiment [2] (Postemergence, 62 g ai/ha, scale 0 to 100), 75; in experiment [2] (Postemergence, 125 g ai/ha, scale 0 to 100), 75; in experiment [2] (Preemergence, 8 g ai/ha, scale 0 to 100, 0 no effect, 100 complete control) it was 0. Moreover, the “Plant response rating, Field Bindweed” value in experiment [2] (setting [7]) is recorded as 0; in experiment [2] (setting [8]) it was 25; in experiment [2] (setting [10]), 65. The “Plant response rating: Chickweed” value in experiment [3] (setting [12]) was determined as 85; in experiment [3] (setting [13]), 95; in experiment [3] (setting [14]), 100. Besides, the “Plant response rating, Chickweed” value in experiment [3] (setting [15]) was found to be 70; in experiment [3] (setting [7]), 50; in experiment [3] (setting [8]), 65; in experiment [3] (setting [9]), 100; in experiment [3] (setting [10]), 100.
